Test results published in PubChem BioAssay (NCI).
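1) Cells in 96-well plates. 2) Compound, 48 h, 5 concentrations. 3) Linear interpolation between surrounding doses. 4) Unreached endpoint = highest concentration. TGI denotes the concentration required for complete inhibition of growth.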

System: SK-MEL-2 melanoma
Assay: NCI tumour cell line growth inhibition, 48 h

Row | Compound | TGI
1 | CC(C)Cn1cnc2c(Sc3c([N+](=O)[O-])ncn3C)nc(N)nc21 | 81.9 µM

System: NCI-H522 lung
Assay: NCI tumour cell line growth inhibition, 48 h

Row | Compound | TGI
2 | COc1cc2c(cc1OC)-c1cc(OC)c(OC)cc1[C@H]1CN3CCC[C@@]3(O)C=C21 | < 0.0001 µM
3 | C=C[C@]1(C)CC(O)C2C(=C)C(=O)OC2[C@H]1C(=C)C=O (some centres undefined) | 2.35 µM
4 | C#CCC(O)c1ccccc1C(O)CC#C (centres undefined) | > 100 µM
5 | COc1nc(=O)cc(N)n1C1OC(CO)C(O)C1O (centres undefined) | > 100 µM
6 | CC(C)Cn1cnc2c(Sc3c([N+](=O)[O-])ncn3C)nc(N)nc21 | 89.1 µM

System: SK-MEL-5 melanoma
Assay: NCI tumour cell line growth inhibition, 48 h

Row | Compound | TGI
7 | COc1cc2c(cc1OC)-c1cc(OC)c(OC)cc1[C@H]1CN3CCC[C@@]3(O)C=C21 | 0.000139 µM
8 | C=C[C@]1(C)CC(O)C2C(=C)C(=O)OC2[C@H]1C(=C)C=O (some centres undefined) | 6.66 µM
9 | C#CCC(O)c1ccccc1C(O)CC#C (centres undefined) | > 100 µM
10 | COc1nc(=O)cc(N)n1C1OC(CO)C(O)C1O (centres undefined) | > 100 µM
11 | CC(C)Cn1cnc2c(Sc3c([N+](=O)[O-])ncn3C)nc(N)nc21 | > 100 µM

System: OVCAR-8 ovarian
Assay: NCI tumour cell line growth inhibition, 48 h

Row | Compound | TGI
12 | C=C[C@]1(C)CC(O)C2C(=C)C(=O)OC2[C@H]1C(=C)C=O (some centres undefined) | 6.74 µM
13 | C#CCC(O)c1ccccc1C(O)CC#C (centres undefined) | > 100 µM
14 | COc1nc(=O)cc(N)n1C1OC(CO)C(O)C1O (centres undefined) | > 100 µM
15 | CC(C)Cn1cnc2c(Sc3c([N+](=O)[O-])ncn3C)nc(N)nc21 | > 100 µM

System: HCT-116 colon
Assay: NCI tumour cell line growth inhibition, 48 h

Row | Compound | TGI
16 | COc1cc2c(cc1OC)-c1cc(OC)c(OC)cc1[C@H]1CN3CCC[C@@]3(O)C=C21 | 0.0101 µM
17 | C=C[C@]1(C)CC(O)C2C(=C)C(=O)OC2[C@H]1C(=C)C=O (some centres undefined) | 3.26 µM
18 | COc1nc(=O)cc(N)n1C1OC(CO)C(O)C1O (centres undefined) | > 100 µM
19 | CC(C)Cn1cnc2c(Sc3c([N+](=O)[O-])ncn3C)nc(N)nc21 | > 100 µM

System: EKVX NSCLC
Assay: NCI tumour cell line growth inhibition, 48 h

Row | Compound | TGI
20 | C=C[C@]1(C)CC(O)C2C(=C)C(=O)OC2[C@H]1C(=C)C=O (some centres undefined) | 33.7 µM
21 | C#CCC(O)c1ccccc1C(O)CC#C (centres undefined) | > 100 µM
22 | COc1nc(=O)cc(N)n1C1OC(CO)C(O)C1O (centres undefined) | > 100 µM
23 | CC(C)Cn1cnc2c(Sc3c([N+](=O)[O-])ncn3C)nc(N)nc21 | > 100 µM

System: DU-145 prostate
Assay: NCI tumour cell line growth inhibition, 48 h

Row | Compound | TGI
24 | C=C[C@]1(C)CC(O)C2C(=C)C(=O)OC2[C@H]1C(=C)C=O (some centres undefined) | 27.1 µM
25 | CC(C)Cn1cnc2c(Sc3c([N+](=O)[O-])ncn3C)nc(N)nc21 | > 100 µM

System: NCI/ADR-RES ovarian
Assay: NCI tumour cell line growth inhibition, 48 h

Row | Compound | TGI
26 | CC(C)Cn1cnc2c(Sc3c([N+](=O)[O-])ncn3C)nc(N)nc21 | > 100 µM

System: T-47D breast
Assay: NCI tumour cell line growth inhibition, 48 h

Row | Compound | TGI
27 | C=C[C@]1(C)CC(O)C2C(=C)C(=O)OC2[C@H]1C(=C)C=O (some centres undefined) | 9.35 µM
28 | CC(C)Cn1cnc2c(Sc3c([N+](=O)[O-])ncn3C)nc(N)nc21 | > 100 µM

System: DMS 273 small cell lung
Assay: NCI tumour cell line growth inhibition, 48 h

Row | Compound | TGI
29 | COc1cc2c(cc1OC)-c1cc(OC)c(OC)cc1[C@H]1CN3CCC[C@@]3(O)C=C21 | 0.000208 µM
30 | C#CCC(O)c1ccccc1C(O)CC#C (centres undefined) | > 100 µM
31 | COc1nc(=O)cc(N)n1C1OC(CO)C(O)C1O (centres undefined) | > 100 µM
32 | CC(C)Cn1cnc2c(Sc3c([N+](=O)[O-])ncn3C)nc(N)nc21 | > 100 µM

System: NCI-H226 lung
Assay: NCI tumour cell line growth inhibition, 48 h

Row | Compound | TGI
33 | COc1cc2c(cc1OC)-c1cc(OC)c(OC)cc1[C@H]1CN3CCC[C@@]3(O)C=C21 | 0.00253 µM
34 | C=C[C@]1(C)CC(O)C2C(=C)C(=O)OC2[C@H]1C(=C)C=O (some centres undefined) | 13.9 µM
35 | COc1nc(=O)cc(N)n1C1OC(CO)C(O)C1O (centres undefined) | > 100 µM
36 | CC(C)Cn1cnc2c(Sc3c([N+](=O)[O-])ncn3C)nc(N)nc21 | > 100 µM

System: SNB-19 CNS
Assay: NCI tumour cell line growth inhibition, 48 h

Row | Compound | TGI
37 | C=C[C@]1(C)CC(O)C2C(=C)C(=O)OC2[C@H]1C(=C)C=O (some centres undefined) | 44.1 µM
38 | C#CCC(O)c1ccccc1C(O)CC#C (centres undefined) | > 100 µM
39 | COc1nc(=O)cc(N)n1C1OC(CO)C(O)C1O (centres undefined) | > 100 µM
40 | CC(C)Cn1cnc2c(Sc3c([N+](=O)[O-])ncn3C)nc(N)nc21 | > 100 µM

System: SNB-75 CNS
Assay: NCI tumour cell line growth inhibition, 48 h

Row | Compound | TGI
41 | C=C[C@]1(C)CC(O)C2C(=C)C(=O)OC2[C@H]1C(=C)C=O (some centres undefined) | 47.9 µM
42 | C#CCC(O)c1ccccc1C(O)CC#C (centres undefined) | > 100 µM
43 | COc1nc(=O)cc(N)n1C1OC(CO)C(O)C1O (centres undefined) | > 100 µM
44 | CC(C)Cn1cnc2c(Sc3c([N+](=O)[O-])ncn3C)nc(N)nc21 | > 100 µM

System: SK-OV-3 ovarian
Assay: NCI tumour cell line growth inhibition, 48 h

Row | Compound | TGI
45 | C=C[C@]1(C)CC(O)C2C(=C)C(=O)OC2[C@H]1C(=C)C=O (some centres undefined) | 66.2 µM
46 | C#CCC(O)c1ccccc1C(O)CC#C (centres undefined) | > 100 µM
47 | COc1nc(=O)cc(N)n1C1OC(CO)C(O)C1O (centres undefined) | > 100 µM
48 | CC(C)Cn1cnc2c(Sc3c([N+](=O)[O-])ncn3C)nc(N)nc21 | > 100 µM

System: SF-268 CNS
Assay: NCI tumour cell line growth inhibition, 48 h

Row | Compound | TGI
49 | C=C[C@]1(C)CC(O)C2C(=C)C(=O)OC2[C@H]1C(=C)C=O (some centres undefined) | 8.21 µM
50 | COc1nc(=O)cc(N)n1C1OC(CO)C(O)C1O (centres undefined) | > 100 µM
51 | CC(C)Cn1cnc2c(Sc3c([N+](=O)[O-])ncn3C)nc(N)nc21 | > 100 µM

System: HOP-62 NSCLC
Assay: NCI tumour cell line growth inhibition, 48 h

Row | Compound | TGI
52 | C=C[C@]1(C)CC(O)C2C(=C)C(=O)OC2[C@H]1C(=C)C=O (some centres undefined) | 34 µM
53 | C#CCC(O)c1ccccc1C(O)CC#C (centres undefined) | > 100 µM
54 | COc1nc(=O)cc(N)n1C1OC(CO)C(O)C1O (centres undefined) | > 100 µM
55 | CC(C)Cn1cnc2c(Sc3c([N+](=O)[O-])ncn3C)nc(N)nc21 | > 100 µM

System: SF-295 CNS
Assay: NCI tumour cell line growth inhibition, 48 h

Row | Compound | TGI
56 | C=C[C@]1(C)CC(O)C2C(=C)C(=O)OC2[C@H]1C(=C)C=O (some centres undefined) | 30.2 µM
57 | C#CCC(O)c1ccccc1C(O)CC#C (centres undefined) | > 100 µM
58 | COc1nc(=O)cc(N)n1C1OC(CO)C(O)C1O (centres undefined) | > 100 µM
59 | CC(C)Cn1cnc2c(Sc3c([N+](=O)[O-])ncn3C)nc(N)nc21 | > 100 µM

System: HOP-92 NSCLC
Assay: NCI tumour cell line growth inhibition, 48 h

Row | Compound | TGI
60 | C=C[C@]1(C)CC(O)C2C(=C)C(=O)OC2[C@H]1C(=C)C=O (some centres undefined) | 6.08 µM
61 | C#CCC(O)c1ccccc1C(O)CC#C (centres undefined) | > 100 µM
62 | CC(C)Cn1cnc2c(Sc3c([N+](=O)[O-])ncn3C)nc(N)nc21 | 36.9 µM

System: BT-549 breast
Assay: NCI tumour cell line growth inhibition, 48 h

Row | Compound | TGI
63 | C=C[C@]1(C)CC(O)C2C(=C)C(=O)OC2[C@H]1C(=C)C=O (some centres undefined) | 15.8 µM
64 | CC(C)Cn1cnc2c(Sc3c([N+](=O)[O-])ncn3C)nc(N)nc21 | > 100 µM
